Data: patent US9216973B2, “Insecticidal compounds” (Syngenta Participations AG, priority 2008, dated 2015)

Legend:
Type in all cases: in vivo
[1] = test system: Thrips tabaci (Onion thrips); test: Thrips tabaci sunflower leaf disc spray test; details: for pest or weed control at 200 ppm: foliar, 168 h, 200 ppm spray on sunflower leaf discs, population of mixed ages, mortality after 7 days
Description: (§1) This Example illustrates the insecticidal and acaricidal properties of compounds of formula (I). The tests were performed as follows:
(§2) Cotton leaf discs were placed on agar in a 24-well microtiter plate and sprayed with test solutions at an application rate of 200 ppm. After drying, the leaf discs were infested with 5 L1 larvae. The samples were checked for mortality, feeding behavior, and growth regulation 3 days after treatment (DAT). The following compound gave at least 80% control of Spodoptera littoralis: A1, A2, A5, A6, A7, A8, A10, A11, A12, A13, A14, A15, A16, A17, A18, A19, A21, A22, A23, A24, A25, A30, A31, A32, A33, A34, A35, A39, A40, A41 A42, A43, A44, A45, A46, A47, A48, A49, A50, A51, A53, A54, A55, A59, A60, A61, A62. Heliothis virescens (Tobacco budworm): Eggs (0-24 h old) were placed in 24-well microtiter plate on artificial diet and treated with test solutions at an application rate of 200 ppm (concentration in well 18 ppm) by pipetting. After an incubation period of 4 days, samples were checked for egg mortality, larval mortality, and growth regulation. The following compound gave at least 80% control of Heliothis virescens: A1, A2, A3, A4, A5, A6, A7, A8, A10, A11, A12, A13, A14, A15, A16, A18, A19, A21, A22, A24, A25, A30, A31, A32, A33, A34, A35, A37, A38, A39, A40, A42, A43, A44, A45, A46, A47, A48, A49, A50, A51, A55, AA57, A58, A59, A60, A61, A62. Plutella xylostella (Diamond back moth): 24-well microtiter plate (MTP) with artificial diet was treated with test solutions at an application rate of 200 ppm (concentration in well 18 ppm) by pipetting. After drying, the MTP's were infested with L2 larvae (7-12 per well). After an incubation period of 6 days, samples were checked for larval mortality and growth regulation. The following compound gave at least 80% control of Plutella xylostella: A1, A2, A5, A6, A7, A8, A9, A10, A11, A12, A13, A14, A15, A16, A17, A18, A19, A20, A21, A22, A24, A25, A30, A31, A32, A33, A34, A35, A37, A38, A39, A40, A42, A43, A44, A45, A46, A47, A48, A49, A50, A51, A52, A53, A54, A55, A57, A58, A59, A60, A61, A62, B3. Diabrotica balteata (Corn root worm): A 24-well microtiter plate (MTP) with artificial diet was treated with test solutions at an application rate of 200 ppm (concentration in well 18 ppm) by pipetting. After drying, the MTP's were infested with L2 larvae (6-10 per well). After an incubation period of 5 days, samples were checked for larval mortality and growth regulation. The following compound gave at least 80% control of Diabrotica balteata: A1, A2, A5, A6, A7, A10, A11, A12, A13, A14, A15, A16, A17, A18, A19, A21, A22, A24, A25, A30, A31, A32, A33, A34, A35, A38, A39, A40, A42, A43, A44, A45, A46, A47, A48, A49, A50, A59, A60, A61, A62. Thrips tabaci (Onion thrips): Sunflower leaf discs were placed on agar in a 24-well microtiter plate and sprayed with test solutions at an application rate of 200 ppm. After drying, the leaf discs were infested with an […] population of mixed ages. After an incubation period of 7 days, samples were checked for mortality. The following compounds gave at least 80% control of Thrips tabaci: A1, A2, A5, A6, A7, A8, A10, A12, A13, A14, A15, A16, A17, A18, A19, A21, A24, A25, A30, A31, A32, A33, A34, A35, A39, A42, A43, A44, A45, A46, A47, A48, A49, A50, A51, A53, A54, A57, A58, A59, A60, A61, A62. Tetranychus urticae (Two-spotted spider mite): Bean leaf discs on agar in 24-well microtiter plates were sprayed with test solutions at an application rate of 200 ppm. After drying, the leaf discs are infested with mite populations of mixed ages. 8 days later, discs are checked for egg mortality, larval mortality, and adult mortality. The following compound gave at least 80% control of Tetranychus urticae: A1, A2, A4, A5, A6, A7, A8, A10, A11, A12, A13, A14, A15, A16, A17, A18, A19, A20, A21, A22, A30, A31, A32, A33, A34, A35, A39, A40, A41, A42, A43, A44, A45, A46, A47, A48, A49, A50, A51, A53, A54, A55, A57, A59, A60, A61, A62.

[2] = test system: Heliothis virescens (Tobacco budworm); test: Heliothis virescens egg test on artificial diet; details: for pest or weed control at 200 ppm: 96 h, 200 ppm (concentration in well 18 ppm), eggs 0-24 h old on artificial diet, egg mortality, larval mortality, growth regulation after 4 days, read-out: control of Heliothis virescens
Description: as §1, §2

[3] = test system: Diabrotica balteata (Corn root worm); test: Diabrotica balteata larvae test on artificial diet; details: for pest or weed control at 200 ppm: 120 h, 200 ppm (concentration in well 18 ppm), artificial diet, L2 larvae, larval mortality and growth regulation after 5 days
Description: as §1, §2

In the case of O=C(NC1CS(=O)(=O)C1)c1ccc(C2=NOC(c3cc(Cl)cc(Cl)c3)(C(F)(F)F)C2Br)c2ccccc12 (stereo not drawn) [A42], the pest or weed control at 200 ppm [1] is reported as ≥ 80%, the pest or weed control at 200 ppm [2] is reported as ≥ 80% and the pest or weed control at 200 ppm [3] is reported as ≥ 80%.

In the case of CC1(NC(=O)c2ccc(C3=NOC(c4cc(Cl)cc(Cl)c4)(C(F)(F)F)C3Br)c3ccccc23)CSC1 (stereo not drawn) [A43], the pest or weed control at 200 ppm [1] is reported as ≥ 80%, the pest or weed control at 200 ppm [2] is reported as ≥ 80% and the pest or weed control at 200 ppm [3] is reported as ≥ 80%.

O=C(NC1C[S+]([O-])C1)c1ccc(C2=NOC(c3cc(Cl)cc(Cl)c3)(C(F)(F)F)C2Br)c2ccccc12 (stereo not drawn) [A44] was tested, and the pest or weed control at 200 ppm [1] was ≥ 80%, the pest or weed control at 200 ppm [2] was ≥ 80% and the pest or weed control at 200 ppm [3] was ≥ 80%.

In the case of Cc1cc(C2=NCC(c3cc(Cl)cc(Cl)c3)(C(F)(F)F)C2)ccc1C(=O)NC1CS(=O)(=O)C1 (stereo not drawn) [A46], the pest or weed control at 200 ppm [1] is reported as ≥ 80%, the pest or weed control at 200 ppm [2] is reported as ≥ 80% and the pest or weed control at 200 ppm [3] is reported as ≥ 80%.

In the case of Cc1cc(C2=NCC(c3cc(Cl)cc(Cl)c3)(C(F)(F)F)C2)ccc1C(=O)NC1(C)CSC1 (stereo not drawn) [A47], the pest or weed control at 200 ppm [1] is reported as ≥ 80%, the pest or weed control at 200 ppm [2] is reported as ≥ 80% and the pest or weed control at 200 ppm [3] is reported as ≥ 80%.

Cc1cc(C2=NCC(c3cc(Cl)cc(Cl)c3)(C(F)(F)F)C2)ccc1C(=O)NC1C[S+]([O-])C1 (stereo not drawn) [A48] was tested, and the pest or weed control at 200 ppm [1] was ≥ 80%, the pest or weed control at 200 ppm [2] was ≥ 80% and the pest or weed control at 200 ppm [3] was ≥ 80%.

With Cc1cc(C2=NCC(c3cc(Cl)cc(Cl)c3)(C(F)(F)F)C2)ccc1C(=O)NC1CSC1 (stereo not drawn) [A49] the pest or weed control at 200 ppm [1] was ≥ 80%, the pest or weed control at 200 ppm [2] was ≥ 80% and the pest or weed control at 200 ppm [3] was ≥ 80%.

In the case of Cc1cc(C2=NOC(c3cc(Cl)cc(Cl)c3)(C(F)(F)F)/C2=N/O)ccc1C(=O)NC1(C)CSC1 (stereo not drawn) [A56], the “effect on mortality, feeding behavior, or growth regulation” value (“effect on mortality, feeding behavior” for short) ([1]; same protocol, 200 ppm) is reported as “little or no effect”, the “effect on mortality, feeding behavior” value ([2]; same protocol, 200 ppm) is reported as “little or no effect” and the “effect on mortality, feeding behavior” value ([3]; same protocol, 200 ppm) is reported as “little or no effect”.

Cc1cc(C2=NOC(c3cc(Cl)cc(Cl)c3)(C(F)(F)F)C2F)ccc1C(=O)NC1CS(=O)(=O)C1 (stereo not drawn) [A59] was tested, and the pest or weed control at 200 ppm [1] was ≥ 80%, the pest or weed control at 200 ppm [2] was ≥ 80% and the pest or weed control at 200 ppm [3] was ≥ 80%.

For Cc1cc(C2=NOC(c3cc(Cl)cc(Cl)c3)(C(F)(F)F)C2F)ccc1C(=O)NC1(C)CSC1 (stereo not drawn) [A60], the pest or weed control at 200 ppm [1] was ≥ 80%, the pest or weed control at 200 ppm [2] was ≥ 80% and the pest or weed control at 200 ppm [3] was ≥ 80%.

For Cc1cc(C2=NOC(c3cc(Cl)cc(Cl)c3)(C(F)(F)F)C2F)ccc1C(=O)NC1CSC1 (stereo not drawn) [A61], the pest or weed control at 200 ppm [1] was ≥ 80%, the pest or weed control at 200 ppm [2] was ≥ 80% and the pest or weed control at 200 ppm [3] was ≥ 80%.

In the case of Cc1cc(C2=NOC(c3cc(Cl)cc(Cl)c3)(C(F)(F)F)C2F)ccc1C(=O)NC1C[S+]([O-])C1 (stereo not drawn) [A62], the pest or weed control at 200 ppm [1] is reported as ≥ 80%, the pest or weed control at 200 ppm [2] is reported as ≥ 80% and the pest or weed control at 200 ppm [3] is reported as ≥ 80%.
